“Also recorded” adds a separate entry of the source. Where two headings read alike, the source gives them in different places.
What was measured:
[1] = system: Convulsions Induced by Inhaled Histamine; test: Delay of convulsions induced by inhaled histamine in conscious guinea pigs; assay type: in vivo, guinea pig
Protocol: Conscious male albino guinea pigs (Dunkin-Hartley strain) weighing 200-300 g were placed (singly) in a 5-liter transparent chamber for 1 minute and subjected to an aerosol of vehicle or test drug in solution, plus histamine (1% w/v).
The time from the beginning of the administration of the aerosol to the start of the first convulsion (when the guinea pig is immediately removed from the aerosol) is the pre-convulsion time. Twenty-four hours later the general procedure was repeated. Guinea pigs treated with the test drug on the first day were treated with vehicle on the second day and vice versa in a cross-over design. Maximum time allowed in the aerosol was 10 minutes. An ultrasonic humidifier was used to produce the aerosol.

Guinea Pig Ileum = test: Antagonism to PGE1 in the guinea pig ileum in vitro; assay type: cell-based; conditions: for antagonism of the effects of PGE1 in the guinea pig ileum: in vitro
Protocol: Preparations were placed in tissue chambers filled with Ringer-Tyrode solution at 37° C., bubbled with a mixture of 95% O2 and 5% CO2, and arranged for isometric recording with force displacement transducers. The segments were stretched to an initial tension of 1 g, and responses to a test concentration of acetylcholine (0.1 mcg/ml) were obtained every 5 minutes until two similar responses were observed (usually after four administrations). Responses to PGE1
(0.1 mcg/ml) were obtained and recorded at 5 minute intervals before and after 100 seconds of incubation with 0.1 and 1.0 mcg/ml of 1-decarboxy-1-hydroxymethyl-PGE1. Any direct contractile effect of the test compound was recorded and evaluated in terms of mean values in grams of tension developed at each concentration. Responses to the agonist observed after incubation with the test compound were expressed as percent of control responses. All drugs were administered in a volume of 0.1 ml.

[2] = system: mobilization of free fatty acids induced by epinephrine; conditions: U.S. Pat. No. 3,636,120 (Pike); cited from earlier work
[3] = system: Histamine-Induced Bronchoconstriction; test: Inhibition of intravenous histamine-induced bronchoconstriction in the anesthetized guinea pig by inhalational administration; assay type: in vivo
Protocol: (§1) Male albino guinea pigs (400-600 g; Dunkin-Hartley Strain) were anesthetized with pentobarbitone sodium (60 mg/kg intraperitoneally).
(§2) Trachea, external jugular vein and carotid artery were cannulated for recording ventilation, intravenous administration of drugs, and blood pressure respectively. The animals were artificially respired throughout the experiment. Electrocardiograms were also recorded. Respiratory flow was charted on a twin-channel recorder fixed to an SE differential pressure transducer.
(§3) Histamine was administered intravenously at 5 minute intervals. The test drug was administered intravenously 15 seconds prior to histamine in order to inhibit bronchoconstriction.
Details of the procedure of this example are the same as those in preceding Example 2 with the exception that the test compounds were delivered in aerosol form into the trachea of the test aminals.

[4] = system: Guinea Pig Tracheal Tissue; test: Relaxation of guinea pig tracheal tissue in vitro; assay type: cell-based; conditions: for Relaxation (×80) (± S.E.): Table B, standard error in parentheses
Protocol: Male guinea pigs weighing 200-500 g were killed by a blow on the head. A 20 mm length of trachea was dissected from each of the animals, transferred to a petri dish containing Krebs' solution aerated with 95% O2 and 5% CO2 at 37° C., and cut longitudinally opposite the tracheal muscle. The tissue was then cut transversely three quarters of the distance across; a second cut in the opposite direction again three quarters of the distance across the tissue was made, and the procedure was continued for the whole tissue. The ends of the trachea were pulled to form a zig-zag shaped strip. The tracheal strips used in the experiment were approximately 30 mm when extended under 0.25-0.5 g load in a tissue bath. Cotton thread was tied to one end of the tissues, and linen thread to the other. The tissues were attached via the linen thread to a glass hook in a 5 ml isolated tissue bath containing Krebs' solution at 37° C. aerated with a mixture of 95% O2 and 5% CO2. The opposite ends were attached via cotton thread to an isotonic transducer. The load on the transducer lever was small, usually 0.3 g, with a range of 0.25-0.5 g; and the magnification high, 80-fold using an appropriate twin-channel pen recorder. A minimum of thirty minutes was allowed before applying a drug to the tissues. Drugs were then applied (in volumes of 0.5 ml) at thirty minute intervals, being in contact with the tissue for five minutes followed by an overflow washout time of twenty seconds.

platelet aggregation = conditions: U.S. Pat. No. 3,636,120 (Pike); cited from earlier work
Conscious Cat = test: Tracheobronchial irritancy (coughing) in conscious cats after inhalation; assay type: in vivo; conditions: for tracheobronchial irritancy compared with PGE1: inhalation, equivalent concentrations/dosages
Protocol: A test drug was given at concentrations from 0.01 μg/ml (up to 100 μg/ml) at two hour intervals exposing each cat for up to 10 minutes each time. If coughing occurred no further challenge was given that day. Two to three days later the other test substance was given. The aerosol was delivered from an ultrasonic nebulizer via rubber tubing connected to a face mask fitted to the cat. The animal was mildly restrained. Coughing was noted by an observer and also monitored by a microphone connected to a tape recorder.

[5] = system: Histamine-Induced Bronchoconstriction; test: Inhibition of histamine-induced bronchoconstriction in the anesthetized guinea pig in vivo by intravenous administration; conditions: for ED50: Cavia porcellus, iv, i.v. 15 seconds prior to histamine
Protocol: as §1, §2, §3

[6] = listed as 1-decarboxy-1-methylhydroxy-PGE1
[7] = 0.10 μg/ml of stock solution aerosolized
[8] = 1.00 μg/ml of stock solution aerosolized

## CCCCC[C@H](O)/C=C/[C@H]1[C@H](O)CC(=O)[C@@H]1CCCCCCCO [1-Decarboxy-1-Hydroxymethyl-PGE1, 15(S)-1,11α,15α-trihydroxy-9-oxo-13-trans-prostene]
[1]; Expt. 1A, 0.10 μg/ml stock solution aerosolized, P <0.02
  Prolongation of Preconvulsion Time: 99 s
[1]; Expt. 1A, 0.50 μg/ml stock solution aerosolized, P <0.001
  Prolongation of Preconvulsion Time: 140 s
[1]; Expt. 1A, 2.50 μg/ml stock solution aerosolized, P <0.01
  Prolongation of Preconvulsion Time: 141 s
[1]; Expt. 1A, 10.00 μg/ml stock solution aerosolized, P <0.02
  Prolongation of Preconvulsion Time: 181 s
[1]; Expt. 2A, 0.01 μg/ml stock solution aerosolized, P <0.01
  Prolongation of Preconvulsion Time: 54 s
[1]; Expt. 2A, 0.10 μg/ml stock solution aerosolized, P <0.05
  Prolongation of Preconvulsion Time: 41 s
[1]; Expt. 2A, 1.00 μg/ml stock solution aerosolized, P <0.02
  Prolongation of Preconvulsion Time: 108 s
[1]; Expt. 2A, 10.00 μg/ml stock solution aerosolized, P <0.02
  Prolongation of Preconvulsion Time: 198 s
[1]; Expt. 2A, 25.00 μg/ml stock solution aerosolized, P <0.001
  Prolongation of Preconvulsion Time: 302 s
Guinea Pig Ileum; 0.1 mcg/ml
  Direct Effect, gm tension: 0.0 gm tension
Guinea Pig Ileum; 1.0 mcg/ml
  Direct Effect, gm tension: 0.0 gm tension
Guinea Pig Ileum; Cavia porcellus, 100 s, read-out: %-Blockade of Tissue Response to 0.1 mcg/ml of PGE1, 0.1 mcg/ml, 100 seconds of incubation
  inhibition at 0.1 µg/mL: 38%
Guinea Pig Ileum; Cavia porcellus, 100 s, read-out: %-Blockade of Tissue Response to 0.1 mcg/ml of PGE1, 1.0 mcg/ml, 100 seconds of incubation
  inhibition at 1 µg/mL: 100%
Guinea Pig Ileum; at the tested concentrations
  direct effect on the tissue: no effect on the tissue at the tested concentrations
Guinea Pig Ileum
  antagonism of the effects of PGE1 in the guinea pig ileum: inhibits the effects of PGE1 in guinea pig ileum tissue in vitro
Guinea Pig Ileum; [6]
  antagonism of the effects of PGE1 in the guinea pig ileum: antagonizes the effects of PGE1 in the guinea pig ileum
[2]
  effect on mobilization of free fatty acids induced by epinephrine: antagonizes mobilization of free fatty acids induced by epinephrine
[3]; 0.001 μg/ml in stock solution aerosolized, inhalation
  Precent Inhibition of Histamine-Induced Bronchoconstriction: 24%
[3]; at 0.001 μg/ml, guinea pig in vivo, relative to PGE1
  times more effective than PGE1 in inhibition of histamine-induced bronchoconstriction: 4 times
[4]; 0.001 μg/ml
  Relaxation (×80) (± S.E.): 24 (18) mm
[4]; 0.01 μg/ml
  Relaxation (×80), 1st Tissue: 30 mm
  Relaxation (×80), 2nd Tissue: 30 mm
  Relaxation (×80), Mean Response: 30 mm
[4]; 0.010 μg/ml
  Relaxation (×80) (± S.E.): 59 (30) mm
[4]; 0.10 μg/ml
  Relaxation (×80), 1st Tissue: 113 mm
  Relaxation (×80), 2nd Tissue: 93 mm
  Relaxation (×80), Mean Response: 104 mm
[4]; 0.100 μg/ml
  Relaxation (×80) (± S.E.): 79 (21) mm
[4]; 1.00 μg/ml
  Relaxation (×80), 1st Tissue: 153 mm
  Relaxation (×80), 2nd Tissue: 173 mm
  Relaxation (×80), Mean Response: 163 mm
[4]; 1.000 μg/ml
  Relaxation (×80) (± S.E.): 104 (14) mm
[4]; 10.00 μg/ml
  Relaxation (×80), 1st Tissue: 146 mm
  Relaxation (×80), 2nd Tissue: 199 mm
  Relaxation (×80), Mean Response: 172 mm
[4]; 10.000 μg/ml
  Relaxation (×80) (± S.E.): 105 (35) mm
[4]; at 0.001 μg/ml, relative to PGE1
  times more potent than PGE1 in relaxing guinea pig tracheal tissue: 24 times
[4]; equivalent concentrations
  comparative effectiveness vs PGE1 in relaxation of tracheal tissue: clearly more effective at equivalent concentrations
[4]; relative to PGE1, no concentration stated for this clause
  times more potent than PGE1 in relaxing guinea pig tracheal tissue in vitro: 24 times
Platelet aggregation
  effect on platelet aggregation: inhibits platelet aggregation
Conscious Cat; [7]
  Incidence of Coughing in a Female (F) Cat: 0/3
  Incidence of Coughing in a Male (M) Cat: 0/3
Conscious Cat; [8]
  Incidence of Coughing in a Female (F) Cat: 1/3
  Incidence of Coughing in a Male (M) Cat: 0/3
Conscious Cat; 10.00 μg/ml of stock solution aerosolized
  Incidence of Coughing in a Male (M) Cat: 0/3
Conscious Cat; 100.00 μg/ml of stock solution aerosolized
  Incidence of Coughing in a Male (M) Cat: 0/2
Conscious Cat
  tracheobronchial irritancy compared with PGE1: much lower incidence of tracheobronchial irritancy than does PGE1 at equivalent concentrations; also recorded: does not cause tracheal-bronchial irritation at equivalent dosages
Conscious Cat; [6]
  tracheobronchial irritancy compared with PGE1: less irritating than PGE1
[5]; A = PGE1, B = 1-decarboxy-1-hydroxymethyl-PGE1, Experiment No. 1
  Ratio of ID50 Values (A/B): 1.14
[5]; A = PGE1, B = 1-decarboxy-1-hydroxymethyl-PGE1, Experiment No. 2
  Ratio of ID50 Values (A/B): 1.25
[5]; A = PGE1, B = 1-decarboxy-1-hydroxymethyl-PGE1, Experiment No. 3
  Ratio of ID50 Values (A/B): 1.17
[5]; A = PGE1, B = 1-decarboxy-1-hydroxymethyl-PGE1, Experiment No. 4
  Ratio of ID50 Values (A/B): 1.14
[5]; A = PGE1, B = 1-decarboxy-1-hydroxymethyl-PGE1, Experiment No. 5
  Ratio of ID50 Values (A/B): 1.05
[5]; A = PGE1, B = 1-decarboxy-1-hydroxymethyl-PGE1, mean
  Ratio of ID50 Values (A/B), Mean: 1.17
[5]; Experiment No. 1, read-out: Dose I.V. inhibiting bronchoconstriction by 50% (ID50)
  ED50: 0.529 µg/kg
[5]; Experiment No. 2, read-out: Dose I.V. inhibiting bronchoconstriction by 50% (ID50)
  ED50: 0.733 µg/kg
[5]; Experiment No. 3, read-out: Dose I.V. inhibiting bronchoconstriction by 50% (ID50)
  ED50: 0.225 µg/kg
[5]; Experiment No. 4, read-out: Dose I.V. inhibiting bronchoconstriction by 50% (ID50)
  ED50: 0.756 µg/kg
[5]; Experiment No. 5, read-out: Dose I.V. inhibiting bronchoconstriction by 50% (ID50)
  ED50: 0.193 µg/kg
[5]; mean of experiments 1-5, read-out: Dose I.V. inhibiting bronchoconstriction by 50% (ID50), Mean
  ED50: 0.495 µg/kg
